For this assay, the target named is EGFR (human) (UniProt P00533).
EGFR (human), sequence (P00533 whole entry, looked up): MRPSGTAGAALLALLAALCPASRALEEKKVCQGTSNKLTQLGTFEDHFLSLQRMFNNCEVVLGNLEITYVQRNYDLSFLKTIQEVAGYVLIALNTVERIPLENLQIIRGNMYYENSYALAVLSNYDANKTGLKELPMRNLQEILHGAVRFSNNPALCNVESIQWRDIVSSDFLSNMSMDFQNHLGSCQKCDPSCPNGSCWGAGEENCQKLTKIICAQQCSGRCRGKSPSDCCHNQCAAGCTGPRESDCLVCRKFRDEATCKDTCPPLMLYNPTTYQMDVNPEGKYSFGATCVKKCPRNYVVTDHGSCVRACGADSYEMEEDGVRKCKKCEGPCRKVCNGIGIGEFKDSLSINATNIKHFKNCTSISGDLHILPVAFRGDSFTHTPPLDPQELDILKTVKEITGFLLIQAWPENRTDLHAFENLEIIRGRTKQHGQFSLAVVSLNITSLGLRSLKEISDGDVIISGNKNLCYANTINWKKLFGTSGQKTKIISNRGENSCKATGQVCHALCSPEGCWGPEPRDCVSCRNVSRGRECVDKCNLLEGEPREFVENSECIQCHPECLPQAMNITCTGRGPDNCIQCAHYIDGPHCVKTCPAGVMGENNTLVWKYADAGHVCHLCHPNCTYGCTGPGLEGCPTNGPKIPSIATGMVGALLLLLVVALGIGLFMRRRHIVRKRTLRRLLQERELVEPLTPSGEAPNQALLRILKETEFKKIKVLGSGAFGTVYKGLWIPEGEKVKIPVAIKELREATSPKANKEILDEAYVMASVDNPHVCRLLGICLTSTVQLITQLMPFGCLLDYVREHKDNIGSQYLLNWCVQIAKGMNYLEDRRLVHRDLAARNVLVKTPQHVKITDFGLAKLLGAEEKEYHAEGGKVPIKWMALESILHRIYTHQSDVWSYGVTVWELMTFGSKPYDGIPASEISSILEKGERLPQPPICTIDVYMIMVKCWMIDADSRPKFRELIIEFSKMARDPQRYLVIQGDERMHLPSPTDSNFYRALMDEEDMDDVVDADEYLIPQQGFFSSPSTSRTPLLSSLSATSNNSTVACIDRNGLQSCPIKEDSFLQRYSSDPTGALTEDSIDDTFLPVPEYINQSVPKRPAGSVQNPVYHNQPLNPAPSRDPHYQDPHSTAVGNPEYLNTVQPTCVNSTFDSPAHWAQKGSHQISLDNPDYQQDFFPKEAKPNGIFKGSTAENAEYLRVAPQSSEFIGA

`CC(C)(C#Cc1cc2ncnc(Nc3ccc(F)c(Cl)c3)c2cc1NS(C)(=O)=O)N1CCN(S(C)(=O)=O)CC1` returned a half-inhibitory concentration (IC50) of 2.1 nM. For `C=CC(=O)Nc1cc2c(Nc3ccc(F)c(Cl)c3)ncnc2cc1C#CC(C)(C)N1CCC(OC)CC1`, the IC50 was found to be 4.6 nM. The compound `C=CC(=O)Nc1cc2c(Nc3ccc(F)c(Cl)c3)ncnc2cc1C#CC(CC)(CC)N1CCN(C)CC1` displayed an IC50 of 2.1 nM. As to `CS(=O)(=O)Nc1cc2c(Nc3ccc(F)c(Cl)c3)ncnc2cc1C#CCCN1CCOCC1`, the IC50 is less than 1 nM.

Take `C=CC(=O)Nc1cc2c(Nc3ccc(F)c(Cl)c3)ncnc2cc1C#CC(COCC)(COCC)N1CCN(C)CC1`: the IC50 came out at 4.4 nM. `C=CC(=O)Nc1cc2c(Nc3ccc(F)c(Cl)c3)ncnc2cc1/C=C/CCN1CCN(C)CC1` gave an IC50 of less than 1 nM.

`CN1CCN(CCC#Cc2cc3ncnc(Nc4ccc(F)c(Cl)c4)c3cc2NS(C)(=O)=O)CC1`: the IC50 was less than 1 nM. In turn, `C=CC(=O)Nc1cc2c(Nc3ccc(F)c(Cl)c3)ncnc2cc1C#CC(C)(C)N1CCC(O)CC1` returned an IC50 of 1.9 nM. `C=CC(=O)Nc1cc2c(Nc3ccc(F)c(Cl)c3)ncnc2cc1C#CC(C)(C)N1CCC(=O)CC1` yielded an IC50 of 1.8 nM. Take `CCOCC(C#Cc1cc2ncnc(Nc3ccc(F)c(Cl)c3)c2cc1NS(C)(=O)=O)(COCC)N1CCN(C)CC1`: the half-inhibitory concentration (IC50) was 10.3 nM.

`COCCN(C)C(C)(C)C#Cc1cc2ncnc(Nc3ccc(F)c(Cl)c3)c2cc1NS(C)(=O)=O` yielded a concentration for half-maximal inhibition (IC50) of 3.1 nM. `C=CC(=O)Nc1cc2c(Nc3ccc(F)c(Cl)c3)ncnc2cc1C#CCCN1CCOCC1` came in with a concentration for half-maximal inhibition (IC50) of less than 1 nM. Consider `COC1CCN(C(C)(C)C#Cc2cc3ncnc(Nc4ccc(F)c(Cl)c4)c3cc2NS(C)(=O)=O)CC1`, for which the IC50 was found to be 5.3 nM. The same measure for `C=CC(=O)Nc1cc2c(Nc3ccc(F)c(Cl)c3)ncnc2cc1C#CC(C)(C)N1CCCN(C)CC1`: 3.2 nM; for `CC(=O)N1CCN(C(C)(C)C#Cc2cc3ncnc(Nc4ccc(F)c(Cl)c4)c3cc2NS(C)(=O)=O)CC1`: 2.1 nM; for `C=CC(=O)Nc1cc2c(Nc3ccc(F)c(Cl)c3)ncnc2cc1C#CC(C)(C)N1CCN(C(C)=O)CC1`: less than 1 nM. In turn, `C=CC(=O)Nc1cc2c(Nc3ccc(F)c(Cl)c3)ncnc2cc1C#CC(C)(C)N(CCOC)CCOC` gave a 50% inhibitory concentration (IC50) of 3.5 nM.

Take `CCOCC(C#Cc1cc2c(Nc3ccc(F)c(Cl)c3)ncnc2cc1OCC)(COCC)N1CCN(C)CC1`: the half-maximal inhibitory concentration (IC50) was more than 10 nM.

`C=CC(=O)Nc1cc2c(Nc3ccc(F)c(Cl)c3)ncnc2cc1C#CC(C)(C)N1CCN(C)CC1` showed an IC50 of 1.8 nM.

Regarding `C=CC(=O)Nc1cc2c(Nc3ccc(F)c(Cl)c3)ncnc2cc1C#CC(C)(C)N1CCN(S(C)(=O)=O)CC1`, the half-inhibitory concentration (IC50) worked out at 1.9 nM. In the case of `CN1CCN(CC#Cc2cc3ncnc(Nc4ccc(F)c(Cl)c4)c3cc2NS(C)(=O)=O)CC1`, the IC50 was less than 1 nM. `C=CC(=O)Nc1cc2c(Nc3ccc(F)c(Cl)c3)ncnc2cc1C#CC(C)(C)N(CC)CCC(=O)OC` gave a concentration for half-maximal inhibition (IC50) of 2.6 nM. On to `C#Cc1cccc(Nc2ncnc3cc(OCC)c(C#CC(C)(C)N4CCN(C(C)=O)CC4)cc23)c1`, for which the 50% inhibitory concentration (IC50) is more than 10 nM. As for `C=CC(=O)Nc1cc2c(Nc3ccc(F)c(Cl)c3)ncnc2cc1C#CC(C)(C)N1CCN(CCOC)CC1`, the concentration for half-maximal inhibition (IC50) stood at 1.5 nM. The compound `C=CC(=O)Nc1cc2c(Nc3ccc(F)c(Cl)c3)ncnc2cc1C#CC(C)(C)N(C)CCN(C)C` came in with a concentration for half-maximal inhibition (IC50) of 2.4 nM.

For the compound `CN(C)CCN(C)C(C)(C)C#Cc1cc2ncnc(Nc3ccc(F)c(Cl)c3)c2cc1NS(C)(=O)=O`, the IC50 came to 2.9 nM. As for `C#Cc1cccc(Nc2ncnc3cc(OCC)c(C#CC(C)(C)N(C)C4CCN(C)CC4)cc23)c1`, the IC50 stood at 3.2 nM. With `C=CC(=O)Nc1cc2c(Nc3ccc(F)c(Cl)c3)ncnc2cc1C#CC(C)(C)N1CCCC1`, the IC50 turned out to be 2.6 nM. The same measure for `C=CC(=O)Nc1cc2c(Nc3ccc(F)c(Cl)c3)ncnc2cc1C#CC(C)(C)N1CCN(CCC#N)CC1`: 2.9 nM; for `CN1CCCN(C(C)(C)C#Cc2cc3ncnc(Nc4ccc(F)c(Cl)c4)c3cc2NS(C)(=O)=O)CC1`: 1.9 nM; for `C=CC(=O)Nc1cc2c(Nc3ccc(F)c(Cl)c3)ncnc2cc1C#CCN1CCOCC1`: less than 1 nM. In turn, `C=CC(=O)Nc1cc2c(Nc3ccc(F)c(Cl)c3)ncnc2cc1C#CC(C)(C)N1CCN(CC)CC1` displayed an IC50 of 3.3 nM. In turn, `CC(C)(C#Cc1cc2ncnc(Nc3ccc(F)c(Cl)c3)c2cc1NS(C)(=O)=O)N1CCC(=O)CC1` gave an IC50 of 2.1 nM. Compound `CCOc1cc2ncnc(Nc3ccc(F)c(Cl)c3)c2cc1C#CC(C)(C)N(C)C1CCN(C)CC1` came in with a half-inhibitory concentration (IC50) of 3.8 nM. The same measure for `C=CC(=O)Nc1cc2c(Nc3ccc(F)c(Cl)c3)ncnc2cc1C#CC(C)(C)N(C)CCOC`: 3.7 nM; for `CCOc1cc2ncnc(Nc3ccc(F)c(Cl)c3)c2cc1C#CCCN1CCN(C)CC1`: 1.2 nM; for `C=CC(=O)Nc1cc2c(Nc3ccc(F)c(Cl)c3)ncnc2cc1C#CCN1CCN(C)CC1`: less than 1 nM. Consider `COc1cc2ncnc(Nc3cccc(C(C)=O)c3)c2cc1C#CC(C)(C)N1CCN(C)CC1`, for which the IC50 was more than 10 nM. The same measure for `COCCN(CCOC)C(C)(C)C#Cc1cc2ncnc(Nc3ccc(F)c(Cl)c3)c2cc1NS(C)(=O)=O`: 6.7 nM; for `C=CC(=O)Nc1cc2c(Nc3ccc(F)c(Cl)c3)ncnc2cc1C#CC1(N2CCN(C)CC2)CCCCC1`: 2.4 nM.

What is called IC50 is the concentration at which inhibition is half-maximal. A lower IC50 goes with higher potency.

Values taken from the Kinase Knowledgebase extract (Sharma et al. 2016).
